Results taken from paper PMC9322761, “Design, Synthesis and Biological Characterization of Histone Deacetylase 8 (HDAC8) Proteolysis Targeting Chimeras (PROTACs) with Anti-Neuroblastoma Activity” (International Journal of Molecular Sciences, 2022).

Key:
HDAC8 = conditions: cited from earlier work
SK-N-BE(2)-C cells [1] = assay: Colony formation assay in neuroblastoma cells; type: cell-based, human; conditions: 5 and 10 μM, treatment 96 h, then 6 days without treatment
Procedure: In order to measure the functional consequence of HDAC8 inhibition, two different cell lines were used: SK-N-BE(2)-C cells, which display MYCN amplification and non-functional p53; and IMR-32 cells having p53 wild type, which both respond with growth arrest and signs of neuronal differentiation upon knockdown or selective inhibition of HDAC8. Growth arrest was determined by colony formation and viability assays. Cells were treated with 5 and 10 μM of each of the CRBN_ based HDAC8 PROTACs having a triazole linker (CRBN_1d, CRBN_1e, CRBN_1f) for 96 h, followed by culturing for another 6 days without treatment (Figure 5A). This assesses whether the treatment impairs the clonogenic growth capacity of tumor cells, indicating effectiveness of compounds on the survival and proliferation of tumor cells.
In six-well plates, 500 cells were seeded and treated as indicated. Viable colonies were stained after a minimum of 10 days with crystal violet. For quantification, the mean intensity of each well of the 8-bit binary picture was measured with ImageJ software (U. S. National Institutes of Health, Bethesda, MD, USA; http://imagej.nih.gov/ij/ (accessed on 1 March 2022)).
Figure 5 (A) Neuroblastoma SK-N-BE(2)-C cells; Colony Assay, 10 days (compound treatment within first 96 h). Stained with crystal violet and quantified with ImageJ. (B,C) Trypan Blue assay for detection of dead cells. Neuroblastoma IMR-32 cells were either treated with 5 µM (B) or 10 µM (C). (D,E) Cell proliferation assessed via counting of viable cells. IMR-32 cells were either treated with 5 µM (D) or 10 µM (E) PROTACs. HDAC8i PCI-34501 served as a positive control, untreated (MEM) and solvent (DMSO) treated cells served as negative controls.

SK-N-BE(2)-C cells [2] = assay: Cell differentiation assay (neurite-like outgrowths, crystal violet); type: cell-based, human; conditions: combined with ATRA, 6–10 days
From the text: As HDAC8 inhibition is known to induce signs of neuronal differentiation, such as neurite-like outgrowths in neuroblastoma cells), we treated SK-N-BE(2)-C cells with CRBN_1b, CRBN_1e, HyT_1m, and PCI-34051 for 6–10 days then stained the cells with crystal violet to visualize neurite-like outgrowths. For comparison, we treated the cells with the known neuronal differentiation inducer retinoic acid (ATRA) which is a known drug, that is applied for neuroblastoma treatment under some circumstances.
Adherent cells plated on 6-well plates were treated as indicated. For staining, cells were rinsed once with (PBS) and incubated with crystal violet staining solution (1% (w/v) in 70% EtOH) for 1 min. Subsequently, the staining solution was removed and cells were rinsed two to three times with autoclaved purified water and allowed to dry. All-trans retinoic acid (ATRA, Sigma-Aldrich, stock concentration 10 mM) was dissolved in ethanol (EtOH, Sigma-Aldrich, St. Louis, USA).
Figure 7 (A) SK-N-BE(2)-C cells, treated for 10 days. Scale bar: 500 µm. Stained with crystal violet. (B) SK-N-BE(2)-C cells, treated for 6 days. Stained with crystal violet.

[3] = Non-enzymatic stability in assay medium (HPLC); conditions: 37 °C, 10 µM, pH7.4
Procedure: Non-enzymatic stability of selected final compounds was determined using 10 µM concentration of the tested PROTACs in one of the following assay media; Dulbecco’s modified Eagle medium (DMEM) (50%)/dimethylsulfoxid (10%)/acetonitrile (40%) or DMEM (50%)/dimethylsulfoxid (10%)/methanol (40%) mixture at pH7.4. The formed solution mixtures were incubated for 0, 6, 12, and 24 h at 37 °C. Analyte decomposition was monitored by HPLC using XTerra RP18 column (3.5 mm, 3.9 mm × 100 mm) from the manufacturer Waters (Milford, MA, USA) and two LC-10AD pumps, a SPD-M10A VP PDA detector, and a SIL-HT autosampler, all from the manufacturer Shimadzu (Kyoto, Japan).

[4] = Cytotoxicity on HEK293 cells (Alamar Blue assay); conditions: human
Procedure: The cells were seeded out at 1.5 × 10^3 cells per well in a 96-well cell culture plate (TPP, Techno Plastic Products AG, Trasadingen, Switzerland). […] After 24 h, Alamar Blue reagent (Invitrogen, Carlsbad, CA, USA) was added according to the manufacturer’s instructions and incubated again for 21 h before the samples were analyzed.

## N[C@H](Cc1cccc(Cl)c1)C(=O)N1CCN(C(=O)c2cc(F)ccc2F)CC1 [II]
HDAC8
  IC50: 200 nM

## COc1ccc(C(=O)NO)cc1NCc1ccc(OCc2cn(CCCCCC(=O)Nc3cccc4c3C(=O)N(C3CCC(=O)NC3=O)C4=O)nn2)cc1 (stereo not drawn) [CRBN_1e]
SK-N-BE(2)-C cells [1]
  Effect on colony formation: strongest effect on colony formation
SK-N-BE(2)-C cells [2]
  Differentiation phenotype (neurite-like outgrowths): substantially enhanced the differentiation phenotype
[3]; 6 h
  Non-enzymatic stability, compound remaining: 91.6%
[3]; 24 h
  Non-enzymatic stability, compound remaining: 65.5%

## COc1cccc2c1C(=O)c1c(O)c3c(c(O)c1C2=O)C[C@@](O)(C(C)=O)C[C@@H]3O[C@H]1C[C@H](N)[C@H](O)[C@H](C)O1 [Daunorubicin]
[4]
  IC50 at 48 h: 2100 nM
